PubChem BioAssay (NCI)
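Each compound was tested at five concentrations against cells in 96-well plates for 48 hours. GI50: concentration for 50% inhibition of growth. At the TGI there is no net growth.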

Tests used:
Assay in all cases: NCI anticancer screen, dose series, 48 h
786-0 renal = system: 786-0 renal
A498 renal = system: A498 renal
A549 NSCLC = system: A549 NSCLC
ACHN renal = system: ACHN renal
BT-549 breast = system: BT-549 breast
CCRF-CEM leukemia = system: CCRF-CEM leukemia
DU-145 prostate = system: DU-145 prostate
EKVX NSCLC = system: EKVX NSCLC
HCC-2998 colon = system: HCC-2998 colon
HCT-116 colon = system: HCT-116 colon
HCT-15 colon = system: HCT-15 colon
HL-60(TB) leukemia = system: HL-60(TB) leukemia
HOP-62 NSCLC = system: HOP-62 NSCLC
HOP-92 NSCLC = system: HOP-92 NSCLC
HS 578T breast = system: HS 578T breast
HT29 colon = system: HT29 colon
IGROV1 ovarian = system: IGROV1 ovarian
KM12 colon = system: KM12 colon
LOX IMVI melanoma = system: LOX IMVI melanoma
M14 melanoma = system: M14 melanoma
MALME-3M melanoma = system: MALME-3M melanoma
MCF7 breast = system: MCF7 breast
MDA-MB-231 breast = system: MDA-MB-231 breast
MDA-MB-435 = system: MDA-MB-435
MOLT-4 leukemia = system: MOLT-4 leukemia
NCI-H226 lung = system: NCI-H226 lung
NCI-H23 lung = system: NCI-H23 lung
NCI-H460 lung = system: NCI-H460 lung
NCI-H522 lung = system: NCI-H522 lung
NCI/ADR-RES ovarian = system: NCI/ADR-RES ovarian
OVCAR-3 ovarian = system: OVCAR-3 ovarian
OVCAR-4 ovarian = system: OVCAR-4 ovarian
OVCAR-5 ovarian = system: OVCAR-5 ovarian
OVCAR-8 ovarian = system: OVCAR-8 ovarian
PC-3 prostate = system: PC-3 prostate
RXF 393 renal = system: RXF 393 renal
SF-268 CNS = system: SF-268 CNS
SF-295 CNS = system: SF-295 CNS
SF-539 CNS = system: SF-539 CNS
SK-MEL-2 melanoma = system: SK-MEL-2 melanoma
SK-MEL-28 melanoma = system: SK-MEL-28 melanoma
SK-MEL-5 melanoma = system: SK-MEL-5 melanoma
SK-OV-3 ovarian = system: SK-OV-3 ovarian
SN12C renal = system: SN12C renal
SNB-19 CNS = system: SNB-19 CNS
SNB-75 CNS = system: SNB-75 CNS
SR leukemia = system: SR leukemia
SW-620 colon = system: SW-620 colon
T-47D breast = system: T-47D breast
TK-10 renal = system: TK-10 renal
U251 CNS = system: U251 CNS
UACC-257 melanoma = system: UACC-257 melanoma
UACC-62 melanoma = system: UACC-62 melanoma
UO-31 renal = system: UO-31 renal

CCN1CCN(CCC(=O)Nc2cccc(-n3cc(-c4ccncc4)c(-c4ccc(Cl)c(OC)c4)n3)c2)CC1
GI50 (786-0 renal): 0.701 µM | TGI (786-0 renal): 2.2 µM | GI50 (A498 renal): 0.676 µM | TGI (A498 renal): 2.74 µM | GI50 (A549 NSCLC): 0.593 µM | TGI (A549 NSCLC): 2.29 µM | GI50 (ACHN renal): 0.782 µM | TGI (ACHN renal): 2.71 µM | GI50 (BT-549 breast): 1.38 µM | TGI (BT-549 breast): 4.43 µM | GI50 (CCRF-CEM leukemia): 0.374 µM | TGI (CCRF-CEM leukemia): 10.3 µM | GI50 (DU-145 prostate): 0.432 µM | TGI (DU-145 prostate): 5.96 µM | GI50 (EKVX NSCLC): 1.06 µM | TGI (EKVX NSCLC): 4.76 µM | GI50 (HCC-2998 colon): 1.27 µM | TGI (HCC-2998 colon): 2.63 µM | GI50 (HCT-116 colon): 0.374 µM | TGI (HCT-116 colon): 1.62 µM | GI50 (HCT-15 colon): 0.491 µM | TGI (HCT-15 colon): 2.16 µM | GI50 (HL-60(TB) leukemia): 0.34 µM | TGI (HL-60(TB) leukemia): 1.13 µM | GI50 (HOP-62 NSCLC): 0.697 µM | TGI (HOP-62 NSCLC): 2.43 µM | GI50 (HOP-92 NSCLC): 0.776 µM | TGI (HOP-92 NSCLC): 6.43 µM | GI50 (HS 578T breast): 0.454 µM | TGI (HS 578T breast): 3.85 µM | GI50 (HT29 colon): 0.381 µM | TGI (HT29 colon): 1.22 µM | GI50 (IGROV1 ovarian): 1.09 µM | TGI (IGROV1 ovarian): 5.18 µM | GI50 (KM12 colon): 0.394 µM | TGI (KM12 colon): 1.68 µM | GI50 (LOX IMVI melanoma): 0.445 µM | TGI (LOX IMVI melanoma): 1.66 µM | GI50 (M14 melanoma): 0.387 µM | TGI (M14 melanoma): 1.73 µM | GI50 (MALME-3M melanoma): 0.765 µM | TGI (MALME-3M melanoma): 2.35 µM | GI50 (MCF7 breast): 0.267 µM | TGI (MCF7 breast): 1.45 µM | GI50 (MDA-MB-231 breast): 1.21 µM | TGI (MDA-MB-231 breast): 2.92 µM | GI50 (MDA-MB-435): 0.123 µM | TGI (MDA-MB-435): 0.35 µM | GI50 (MOLT-4 leukemia): 0.661 µM | TGI (MOLT-4 leukemia): 5.76 µM | GI50 (NCI-H226 lung): 1.26 µM | TGI (NCI-H226 lung): 7.31 µM | GI50 (NCI-H23 lung): 1.04 µM | TGI (NCI-H23 lung): 3.56 µM | GI50 (NCI-H460 lung): 0.361 µM | TGI (NCI-H460 lung): 1.37 µM | GI50 (NCI-H522 lung): 0.275 µM | TGI (NCI-H522 lung): 1.19 µM | GI50 (NCI/ADR-RES ovarian): 1.27 µM | TGI (NCI/ADR-RES ovarian): 4.29 µM | GI50 (OVCAR-3 ovarian): 0.352 µM | TGI (OVCAR-3 ovarian): 1.43 µM | GI50 (OVCAR-4 ovarian): 0.919 µM | TGI (OVCAR-4 ovarian): 7.53 µM | GI50 (OVCAR-5 ovarian): 1.42 µM | TGI (OVCAR-5 ovarian): 4.84 µM | GI50 (OVCAR-8 ovarian): 1.26 µM | TGI (OVCAR-8 ovarian): 3.82 µM | GI50 (PC-3 prostate): 0.448 µM | TGI (PC-3 prostate): 2.02 µM | GI50 (RXF 393 renal): 0.244 µM | TGI (RXF 393 renal): 1.43 µM | GI50 (SF-268 CNS): 0.663 µM | TGI (SF-268 CNS): 2.43 µM | GI50 (SF-295 CNS): 0.36 µM | TGI (SF-295 CNS): 1.63 µM | GI50 (SF-539 CNS): 0.362 µM | TGI (SF-539 CNS): 1.47 µM | GI50 (SK-MEL-2 melanoma): 1.11 µM | TGI (SK-MEL-2 melanoma): 2.55 µM | GI50 (SK-MEL-28 melanoma): 1.39 µM | TGI (SK-MEL-28 melanoma): 2.97 µM | GI50 (SK-MEL-5 melanoma): 0.507 µM | TGI (SK-MEL-5 melanoma): 1.83 µM | GI50 (SK-OV-3 ovarian): 1.84 µM | TGI (SK-OV-3 ovarian): 7.67 µM | GI50 (SN12C renal): 0.623 µM | TGI (SN12C renal): 2.88 µM | GI50 (SNB-19 CNS): 1.08 µM | TGI (SNB-19 CNS): 5.61 µM | GI50 (SNB-75 CNS): 0.392 µM | TGI (SNB-75 CNS): 6.82 µM | GI50 (SR leukemia): 0.433 µM | TGI (SR leukemia): 2.37 µM | GI50 (SW-620 colon): 0.338 µM | TGI (SW-620 colon): 1.5 µM | GI50 (T-47D breast): 0.841 µM | TGI (T-47D breast): 4.7 µM | GI50 (TK-10 renal): 1.75 µM | TGI (TK-10 renal): 5 µM | GI50 (U251 CNS): 0.484 µM | TGI (U251 CNS): 1.76 µM | GI50 (UACC-257 melanoma): 0.864 µM | TGI (UACC-257 melanoma): 2.31 µM | GI50 (UACC-62 melanoma): 0.757 µM | TGI (UACC-62 melanoma): 2.34 µM | GI50 (UO-31 renal): 0.922 µM | TGI (UO-31 renal): 2.53 µM
